In PubChem BioAssay AID1963966 (Molecular Pharmacology Branch, DTP, NCI, 2024):

Test system: 935938-334-R-J1-PDC spheroids with HUVEC/MSC, viability
Test: Anticancer human tumor 935938-334-R-J1-PDC patient-derived small intestine adenocarcinoma cell line growth inhibition [PI3K]
Settings: for IC50: curve of first compound; for viability, T/C: stronger effect = lower value
Source text: Combinatorial screen of targeted agents with the PI3K inhibitors inavolisib, alpelisib, duvelisib, and copanlisib in multi-cell type tumor spheroids
A high-throughput screen of multi-cell type tumor spheroids was designed to identify active combinations of targeted small molecules and PI3K pathway inhibitors. Complex spheroids include a stromal component modeled by human endothelial cells (HUVEC) and fibroblasts modeled by human mesenchymal stem cells (MSCs). The concentration ranges selected for each drug and investigational agent were based upon clinically achievable concentrations if the clinical Cmax of the agent was known.
Compounds. The drugs and investigational agents: inavolisib (NSC800729), alpelisib (NSC765974), duvelisib (NSC772469), copanlisib (NSC816437), ipatasertib (NSC767898), afuresertib (NSC778305), talazoparib (NSC767125), sapanisertib (NSC764658), selumetinib (NSC741078), tovorafenib (DAY101, NSC766906), vemurafenib (NSC761431), ravoxertinib (NSC781343), sotorasib (NSC818433), MRTX1133 (NSC 836407), abemaciclib (NSC 768073), palbociclib (NSC758247), venetoclax (NSC 766270), SY5609 (NSC837396), enzalutamide (NSC755605), and darolutamide (NSC825331), were obtained from the National Cancer Institute (NCI) Developmental Therapeutics Program Chemical Repository. The FDA-approved anticancer drug set is available from the NCI Developmental Therapeutics Program. […] The stock solutions were prepared in dimethyl sulfoxide (DMSO, Sigma-Aldrich, St. Louis, MO, cat. D2650) at 800-fold the tested concentration and stored at -70 degrees C prior to their use. All drugs and investigational agents were tested over a range starting from a high concentration at or near the clinical Cmax and decreasing in half-log increments. If the clinical Cmax for an agent had not been determined, the highest concentration tested was 10 microM.
Cell Culture. All cells were maintained in an incubator at 37 degrees C and 5% CO2 with 95% humidity. The PDC lines were cultured according to standard operating procedures established by the NCI PDMR (https://pdmr.cancer.gov/sops/default.htm). All PDCs were thawed and cultured in Matrigel-coated flasks prepared with a working solution of 1X Ham's F-12 nutrient mix, without supplementation (Invitrogen, Waltham, MA, cat. 11765054), 100 U/mL penicillin-streptomycin (Invitrogen, cat. 15140122), and 2.5% Matrigel (Corning Inc., Corning, NY, cat. 354248) for the first three passages. The 354836-022-R-J1-PDC, 475296-252-R-J1-PDC, and 997726-040-R-J2-PDC lines were cultured in 6A media, which includes advanced DMEM/F-12 (Thermo Fisher Scientific, cat. 12634028), 10 mM HEPES (Thermo Fisher Scientific, cat. 15630080), 1X GlutaMAX supplement (Thermo Fisher Scientific, cat. 35050061), 0.1 mg/mL primocin (InvivoGen, San Diego, CA, cat. ant-pm-2), 10% defined fetal bovine serum, heat inactivated (HyClone Laboratories Inc., Logan, UT, cat. SH30070.03HI), 50% L-WRN conditioned media (ATCC, cat. CRL-3276), 1.25 mM N-Acetyl-L-cysteine (Sigma-Aldrich, cat. A9165), 10 mM nicotinamide (Sigma-Aldrich, cat. N0636), 1X B-27 supplement (Thermo Fisher Scientific, cat. 17504044), 1X N-2 supplement (Thermo Fisher Scientific, cat. 17502048), and 10 microM Y-27632 dihydrochloride (Tocris Bioscience, Bristol, United Kingdom, cat. 1254). The 624824-186-R-J2-PDC line was cultured in 6C/Colon 1B media, which includes all 6A media components plus 50 ng/mL human EGF recombinant protein (Thermo Fisher Scientific, cat. PHG0311). […]
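Also: compound exposure lasted seven days before viability was read.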
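For viability, T/C in this document: percent of vehicle DMSO treated spheroid viability so 100% = untreated.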

`CC(C)n1nc(-c2ccc3oc(N)nc3c2)c2c(N)ncnc21` + CC(Nc1ccc2c(c1)OCCn1cc(N3C(=O)OCC3C(F)F)nc1-2)C(N)=O was tested, and the IC50 (second compound 0.00316 µM) was 82.2 nM, the IC50 (second compound 0.01 µM) was over 100 nM and the IC50 (second compound 0.0316 µM) was 64.6 nM. The IC50 (second compound 0.1 µM) was 44.1 nM, the IC50 (second compound 0.316 µM) was 37.4 nM and the IC50 (second compound 1 µM) was 8.33 nM. It also gave a viability, T/C (second compound 0.00316 µM, first compound 0.000316 µM) of 102%, a viability, T/C (second compound 0.00316 µM, first compound 0.001 µM) of 113% and a viability, T/C (second compound 0.00316 µM, first compound 0.00316 µM) of 80.9%. It also gave a viability, T/C (second compound 0.00316 µM, first compound 0.01 µM) of 87.4%, a viability, T/C (second compound 0.00316 µM, first compound 0.0316 µM) of 76.6% and a viability, T/C (second compound 0.00316 µM, first compound 0.1 µM) of 43.5%. It also gave a viability, T/C (second compound 0.01 µM, first compound 0.000316 µM) of 112%, a viability, T/C (second compound 0.01 µM, first compound 0.001 µM) of 107% and a viability, T/C (second compound 0.01 µM, first compound 0.00316 µM) of 109%. It also gave a viability, T/C (second compound 0.01 µM, first compound 0.01 µM) of 62.2%, a viability, T/C (second compound 0.01 µM, first compound 0.0316 µM) of 76.9% and a viability, T/C (second compound 0.01 µM, first compound 0.1 µM) of 51.9%. For the same compound, the viability, T/C (second compound 0.0316 µM, first compound 0.000316 µM) was 100%, the viability, T/C (second compound 0.0316 µM, first compound 0.001 µM) was 99.1% and the viability, T/C (second compound 0.0316 µM, first compound 0.00316 µM) was 94.6%. It also gave a viability, T/C (second compound 0.0316 µM, first compound 0.01 µM) of 84.4%, a viability, T/C (second compound 0.0316 µM, first compound 0.0316 µM) of 83.8% and a viability, T/C (second compound 0.0316 µM, first compound 0.1 µM) of 31.6%. For the same compound, the viability, T/C (second compound 0.1 µM, first compound 0.000316 µM) was 102%, the viability, T/C (second compound 0.1 µM, first compound 0.001 µM) was 96.3% and the viability, T/C (second compound 0.1 µM, first compound 0.00316 µM) was 101%. For the same compound, the viability, T/C (second compound 0.1 µM, first compound 0.01 µM) was 86.6%, the viability, T/C (second compound 0.1 µM, first compound 0.0316 µM) was 57.3% and the viability, T/C (second compound 0.1 µM, first compound 0.1 µM) was 32.6%. For the same compound, the viability, T/C (second compound 0.316 µM, first compound 0.000316 µM) was 78.2%, the viability, T/C (second compound 0.316 µM, first compound 0.001 µM) was 91% and the viability, T/C (second compound 0.316 µM, first compound 0.00316 µM) was 61.5%. It also gave a viability, T/C (second compound 0.316 µM, first compound 0.01 µM) of 61%, a viability, T/C (second compound 0.316 µM, first compound 0.0316 µM) of 61.1% and a viability, T/C (second compound 0.316 µM, first compound 0.1 µM) of 32.3%. For the same compound, the viability, T/C (second compound 1 µM, first compound 0.000316 µM) was 50.6%, the viability, T/C (second compound 1 µM, first compound 0.001 µM) was 63.5% and the viability, T/C (second compound 1 µM, first compound 0.00316 µM) was 52%. For the same compound, the viability, T/C (second compound 1 µM, first compound 0.01 µM) was 49.7%, the viability, T/C (second compound 1 µM, first compound 0.0316 µM) was 35.2% and the viability, T/C (second compound 1 µM, first compound 0.1 µM) was 31.3%.
